According to patent US10213506B2, “Targeting immunotherapy for amyloidosis” (UNIVERSITY OF TENNESSEE RESEARCH FOUNDATION, priority 2014, dated 2019):

Key:
mAb clones = test: Capture of biotinylated negative control peptides by adsorbed mAbs; assay type: binding, murine; settings: 100 ng/well
Experimental: More particularly, 96-well ELISA microplates were coated overnight with the indicated mAbs (500 ng/well), the wells were blocked with PBS/BSA solution before addition of biotinylated p5+14 peptide (100 ng/well). Biotinylated peptides, p5R and p31G (aka p5G) were used as a negative control. Following a wash step, detection of captured peptide was achieved by addition of europium-conjugated streptavidin as described above.

liver macrophages = test: Liver macrophage staining (Iba-1) after in vivo pre-targeting; settings: AA mice pre-injected with the peptide, 72 h post injection of 11-1F4 mAb
Experimental: (§1) Systemic visceral AA amyloidosis was induced in H2-L^d-huIL-6 Tg Balb/c transgenic mice that constitutively express the human interleukin-6 transgene, by iv injection of 10 μg of purified, splenic AA amyloid (amyloid enhancing factor; AEF) in 100 μL of sterile phosphate-buffered saline (PBS). Peptide p66 pre-targeting of ^125I-11-1F4 was evaluated in mice at 3-4 wk post AEF injection when amyloid load was modest.
(§2) Three cohorts of 3 mice, each received ˜400 μg of unlabeled peptide p66, and a second group of 3 cohorts were given peptide p5+14 as a control. Twenty-four hours after the peptide injection all mice were administered ˜150 μCi (˜20 μg) of ^125I-11-1F4 IV in the lateral tail vein. One group of p66 mice (n=3) and one group of p5+14 control mice (n=3) were euthanized at 24, 48 and 72 h post injection of 11-1F4 mAb and the organs harvested at necropsy for fixation, followed by microautoradiographic and immunohistochemical analyses.
The presence of macrophages was detected by staining with mAb Iba-1 (1:8000 diln) followed by addition of biotinylated rabbit anti-mouse secondary reagent (Vector Rabbit Elite kit). The slides were developed, as described above. All tissue sections were examined using a Leica DM500 light microscope fitted with cross-polarizing filters (for Congo red). Digital microscopic images were acquired using a cooled CCD camera (SPOT; Diagnostic Instruments).

AA amyloid = test: In vivo pre-targeting of 125I-11-1F4 to systemic AA amyloid; settings: AA mice, ~400 μg unlabeled peptide, 24 h post injection of 11-1F4
Experimental: as §1, §2
For autoradiography, 6-μm-thick sections were cut from formalin-fixed, paraffin-embedded blocks, containing tissues from mice that had received ^125I-p66. The sections were placed on Plus microscope slides (Fisher Scientific), dipped in NTB-2 emulsion (Eastman Kodak), stored in the dark, and developed after a 4 day exposure. Each section was counterstained with hematoxylin and eosin. […]

BSA-blocked wells = BSA-blocked wells (Bos taurus, UniProt P02769); test: p66 and 11-1F4 on BSA-blocked wells without fibrils; assay type: binding; settings: no fibrils
Sequence of BSA-blocked wells (P02769 25-607): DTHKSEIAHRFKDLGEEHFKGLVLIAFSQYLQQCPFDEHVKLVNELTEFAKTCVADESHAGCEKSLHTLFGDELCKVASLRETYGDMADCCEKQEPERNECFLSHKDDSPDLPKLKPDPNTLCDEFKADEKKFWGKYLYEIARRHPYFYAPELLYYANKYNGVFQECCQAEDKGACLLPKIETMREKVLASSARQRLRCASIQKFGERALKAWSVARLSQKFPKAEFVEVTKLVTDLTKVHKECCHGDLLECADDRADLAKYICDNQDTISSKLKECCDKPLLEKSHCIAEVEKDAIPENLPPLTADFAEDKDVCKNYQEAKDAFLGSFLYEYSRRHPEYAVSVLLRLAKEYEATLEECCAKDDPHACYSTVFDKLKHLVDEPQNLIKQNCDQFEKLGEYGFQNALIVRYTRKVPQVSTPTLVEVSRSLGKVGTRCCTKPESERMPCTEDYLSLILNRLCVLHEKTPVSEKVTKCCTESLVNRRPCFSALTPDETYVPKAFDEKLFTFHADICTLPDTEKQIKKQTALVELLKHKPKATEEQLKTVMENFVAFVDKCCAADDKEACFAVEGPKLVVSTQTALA

AA amyloid deposits = test: In vivo binding of 125I-p66 in mice with systemic AA amyloidosis
Experimental: as §1, with “p66” for “p66 pre-targeting of ^125I-11-1F4”, “4-6” for “3-4”, “significant.” for “modest.”
(§3) Imaging was performed using WT or AA amyloid mice (n=3) that were injected with ˜5 μg of ^125I-p66, 125 μCi in the lateral tail vein. After the appropriate uptake time (data for 4 and 72 h pi shown), mice were euthanized by isoflurane inhalation overdose. SPECT images were acquired using an Inveon trimodality imaging platform (Siemens Preclinical Solution, Knoxville, Tenn.) running Inveon Acquisition Workplace software (ver. 2.0). Low energy (^125I; 25-45 keV) gamma photons were acquired at each of 60, 16-sec projections with 90 mm of bed travel. A 1 mm-diameter, 5-pinhole (Mouse Whole Body) collimator was used at 30 mm from the center of the field of view. Data were reconstructed post hoc onto an 88×88×312 matrix with isotropic 0.50 mm voxels using a 3D ordered subset expectation maximization (OSEM) algorithm (8 iterations; 6 subsets).
CT data were acquired using an x-ray voltage biased to 80 kVp with a […] anode current, with 4×4 binning. A 225 msec exposure was used, and 360, 1-degree projections were collected. The data were reconstructed using an implementation of the Feldkamp filtered back-projection algorithm onto a 512×512×1296 matrix with isotropic 0.106 mm voxels. […]
(§4) Samples of liver, spleen, pancreas, kidneys, small and large intestines, stomach and heart were harvested post mortem from every mouse undergoing imaging with ^125I-p66. A sample of each was placed into a tared, plastic vial, weighed and the ^125I radioactivity measured using an automated Wizard 3 gamma counter (1480 Wallac Gamma Counter, Perkin Elmer). The biodistribution data were expressed as % injected dose/g tissue (% ID/g). […]

[1] = In vivo binding of 125I-p66 in healthy WT mice; settings: 125I-labelled peptide iv
Experimental: as §3
as §4, with “ID/g). In addition, samples of each tissue were fixed in 10% buffered-formalin for 24 h and embedded in paraffin for autoradiography.” for “ID/g).”

[2] = tested on: synthetic and naturally-occurring amyloid samples; test: 125I-peptide pull-down assay; assay type: binding
Experimental: To evaluate the binding of p66 and p5+14 to synthetic and naturally-occurring amyloid, peptides p66 or p5+14 were radiolabeled with iodine-125 (I-125, ^125I) using oxidation with chloramine T (1 mg/ml in water freshly made. Free 1-125 was removed from the reaction mixture by size exclusion chromatography using a Sephadex G-25 solid phase and a 0.1% (w/v) gelatin in PBS mobile phase. Fractions of ˜250 μl were collected and the radioactivity in each measured using a gamma counter (Packard Cobra II auto-gamma counter). Peptide fractions with peak radioactivity were pooled and used for the “pull-down” assays.
For the pull down assay, ^125I-labeled peptide binding to murine: (m) AA and wild type (WT) liver homogenates (25 μl); rVλ6Wil (AL), Aβ(1-40) and islet amyloid polypeptide (IAPP) synthetic fibrils (25 μg), and; transthyretin-associated (ATTR), ALκ4-Cab and ALλ1-Ship human amyloid extracts (50 μg). The ^125I-peptides were prepared in PBST (0.15 M NaCl) or PBST with 1 M NaCl. Ten μl (˜5 ng, ˜100,000 counts per min [cpm]) of the ^125I-peptide solution was added to each test sample in a 200 μl volume. The reaction mixtures were rotated for 1 h at RT, then centrifuged twice at 16,000× g for 10 min. After each step the supernatants were removed and collected in test tubes. The pellets, obtained following the second spin were resuspended in PBST. The radioactivity in both the supernatant and pellet samples were measured using a Packard Cobra II auto-gamma counter. The bound peptide, expressed as % total was calculated according to: Bound peptide(% total)=(Pellet cpm)/(Pellet cpm+Supernatant cpm)

human ATTR amyloid = molecular target: T1, human ATTR amyloid (Homo sapiens, UniProt P02766); test: Pre-targeting immunohistochemistry on ATTR-laden tissue sections; assay type: binding; settings: biotinylated peptide without mAb; compared with Congo red
T1 construct: human ATTR-laden formalin-fixed paraffin embedded tissue sections; from tissue
Experimental: The pre-targeting efficacy of peptide p5+14 in conjunction with mAb clones 4, 5, 12, or 13 was further evaluated using human ATTR-laden formalin-fixed paraffin embedded tissue sections. More particularly, six micrometer-thick sections, cut from formalin-fixed, paraffin embedded human transthyretin (TTR) amyloid-laden tissue, were subjected to antigen retrieval by incubation with CitraPlus (BioGenex, San Ramon, Calif.) for 30 min at 90° C. Peptide p5+14 was added to the tissue at ˜3 μg/mL (30× molar excess over mAb) and incubated overnight at 4° C. Unbound reagent was removed by washing in PBST for 30 min. Tissues (with or without p5+14) were immunostained with a 3 μg/mL solution of biotinylated anti-peptide mAb (clones 4, 5, 12, or 13). Slides were developed by addition of streptavidin-HRP (Vectastain Elite ABC kit, Vector Labs) followed by 3,3′-diaminobezidene (Vector Labs).
By way of positive control, a biotinylated-p5+14 peptide (without mAb) was used to directly stain TTR amyloid in this tissue (red arrows, below), as described above.
To confirm the presence and distribution of amyloid in the tissue a consecutive slide was stained with Congo red. Briefly, tissues were incubated in Congo red solution (0.8% w/v Congo red, 0.2% KOH w/v in 80% ethanol) for 1 h at RT. Sections were then washed in water and counterstained by suspending in Mayer's hematoxylin for 2 min. […]

Substance	Capture of biotinylated peptide by adsorbed mAb clones (mAb clones)	Liver macrophage infiltration (Iba-1 staining) (liver macrophages)	Peptide associated with AA amyloid in tissues (immunohistochemistry with clone 12-3) (AA amyloid)	Peptide binding to BSA-blocked wells in the absence of fibrils (BSA-blocked wells)	Binding to amyloid deposits in vivo (micro-autoradiography vs Congo red) (AA amyloid deposits; 125I-labelled peptide iv, mice with systemic AA amyloidosis)	Reactivity with amyloid in vivo, notably liver, spleen, pancreas and intestines (SPECT/CT imaging and tissue biodistribution) (AA amyloid deposits; 125I-labelled peptide, AA mice)	Time post injection at which liver amyloid could be visualized by SPECT imaging (AA amyloid deposits; 125I-labelled peptide, AA mice)	Binding to healthy tissues in vivo (micro-autoradiography) [1]	Binding of 125I-peptide to amyloid samples (pull-down) ([2]; 0.15 M NaCl)	Binding of 125I-peptide to amyloid samples (pull-down) ([2]; 1.0 M NaCl)	Direct staining of ATTR amyloid by biotinylated peptide (human ATTR amyloid)
p5G: SEQ ID NO: 3: GAQGAQAGQAGQAQGAQGAQAGQAGQ (GAQGAQAGQAGQAQGAQGAQAGQAGQ; Peptide p5G)	not captured										
p5R: SEQ ID NO: 2: RAQRAQARQARQAQRAQRAQARQARQ (RAQRAQARQARQAQRAQRAQARQARQ; Peptide p5R)	not captured										
p66: SEQ ID NO: 18: p5+14 fused via linker SVTVVT to 11-1F4 12-mer epitope KHYAAFPENLLI (KAQKAQAKQAKQAQKAQKAQAKQAKQAQKAQKAQAKQAKQSVTVVTKHYAAFPENLLI; Fusion protein between p66 and antibody epitope sequence 11-1F4)		induced macrophage infiltration into the liver and clustering of macrophages around amyloid deposits to a greater degree	associated specifically with AA amyloid	no peptide bound	specifically bound the amyloid deposits	confirmed	at least 72 h	did not bind to any tissue	bound equally well	bound equally well	
p5+14: SEQ ID NO: 17: KAQKAQAKQAKQAQKAQKAQAKQAKQAQKAQKAQAKQAKQ (KAQKAQAKQAKQAQKAQKAQAKQAKQAQKAQKAQAKQAKQ; Peptide p5+14)		induced macrophage infiltration	p5+14-coated AA amyloid in all tissues evaluated						bound equally well	bound equally well	co-localizes with amyloid deposits
